Consider 30 molecules from ChEMBL document CHEMBL5620396, “Phenotypic screening identifies a trisubstituted imidazo[1,2-a]pyridine series that induces differentiation in multiple AML cell lines” (Eur J Med Chem, 2023).

In brackets after ≈: the same amount, converted by molar mass. Activity calls are given as the source filed them. The calls are words filed in the database; no cut-off is given here.

Series [1] is described as follows: Semi-thermodynamic aqueous solubility of compound. To be noted: buffer; read-out: Therm_solubility. It counts as physicochemical.
For series [2], the system named is HL-60. The experiment in a line: Induction of differentiation in human HL-60 cells assessed as reduction in cell number at 10 nM incubated for 4 days by acridine orange/DAPI staining based analysis. It counts as functional. To be noted: time 4.0 day.
In series [3] the test system is THP-1. The experiment in a line: Induction of differentiation in human THP-1 cells assessed as reduction in cell number at 10 nM incubated for 4 days by acridine orange/DAPI staining based analysis. It counts as functional. Conditions: time 4.0 day.
Series [4] concerns OCI-AML-3. The experiment in a line: Induction of differentiation in human OCI-AML-3 cells assessed as reduction in cell number at 10 nM incubated for 4 days by acridine orange/DAPI staining based analysis. It counts as functional. To be noted: time 4.0 day.
Series [5] has as its system KG-1. The experiment in a line: Induction of differentiation in human KG-1 cells assessed as reduction in cell number at 10 nM incubated for 4 days by acridine orange/DAPI staining based analysis. Conditions: time 4.0 day. It counts as functional.
Series [6] relates to ME-1. The experiment in a line: Induction of differentiation in human ME-1 cells assessed as reduction in cell number at 10 nM incubated for 4 days by acridine orange/DAPI staining based analysis. Conditions: time 4.0 day. It counts as functional.
Series [7] relates to Kasumi 1. The series is described as follows: Induction of differentiation in human Kasumi 1 cells assessed as reduction in cell number at 10 nM incubated for 4 days by acridine orange/DAPI staining based analysis. To be noted: time 4.0 day. It counts as functional.
Series [8] can be described thus: Metabolic stability in mouse S9 fraction assessed as compound remaining measured after 45 mins in absence of NADPH and […]. It counts as ADME, subcellular. To be noted: read-out: Stability.
Series [9] has as its system HL-60. The experiment in a line: Induction of differentiation in human HL-60 cells assessed as upregulation of CD11b response at 10 uM incubated for 4 days by flow cytometry analysis relative to control. It counts as functional. Conditions: time 4 day.
The subject of series [10] is HL-60. The series is described as follows: Induction of differentiation in human HL-60 cells assessed as upregulation of CD11b response at 1 uM incubated for 4 days by flow cytometry analysis relative to control. It counts as functional. To be noted: time 4 day.
Series [11] deals with HL-60. The experiment in a line: Induction of differentiation in human HL-60 cells assessed as reduction in cell number at 10 uM incubated for 4 days by acridine orange/DAPI staining based analysis. It counts as functional. Conditions: time 4.0 day.
Series [12] relates to THP-1. The series is described as follows: Induction of differentiation in human THP-1 cells assessed as reduction in cell number at 10 uM incubated for 4 days by acridine orange/DAPI staining based analysis. It counts as functional. Conditions: time 4.0 day.
For series [13], the system named is OCI-AML-3. The series is described as follows: Induction of differentiation in human OCI-AML-3 cells assessed as reduction in cell number at 10 uM incubated for 4 days by acridine orange/DAPI staining based analysis. It counts as functional. Conditions: time 4.0 day.
The subject of series [14] is KG-1. The experiment in a line: Induction of differentiation in human KG-1 cells assessed as reduction in cell number at 10 uM incubated for 4 days by acridine orange/DAPI staining based analysis. It counts as functional. Conditions: time 4.0 day.
The test system of series [15] is ME-1. The experiment in a line: Induction of differentiation in human ME-1 cells assessed as reduction in cell number at 10 uM incubated for 4 days by acridine orange/DAPI staining based analysis. To be noted: time 4.0 day. It counts as functional.
Series [16] has as its system Kasumi 1. The experiment in a line: Induction of differentiation in human Kasumi 1 cells assessed as reduction in cell number at 10 uM incubated for 4 days by acridine orange/DAPI staining based analysis. To be noted: time 4.0 day. It counts as functional.
Series [17] relates to HL-60. The series is described as follows: Induction of morphological changes in human HL-60 cells assessed as variation in cell size at 10 uM. It counts as functional, cell-based.
The subject of series [18] is HL-60. The series is described as follows: Induction of morphological changes in human HL-60 cells assessed as variations in nuclear segmentation at 10 uM. It counts as functional, cell-based.
Series [19] has as its system HL-60. The series is described as follows: Induction of morphological changes in human HL-60 cells assessed as appearance of wider and lighter cytoplasm at 10 uM. It counts as functional, cell-based.
The subject of series [20] is HL-60. The series is described as follows: Induction of morphological changes in human HL-60 cells assessed as appearance of granules and vacuoles at 10 uM. It counts as functional, cell-based.

`COc1ccc(-c2cnc3c(NC=O)cc(-c4ccccc4OC)cn23)cc1C#N`: in [1], the solubility thermodynamic is 2 µM (≈ 0.797 µg/mL).

Consider `CC1=C(c2cc(NS(C)(=O)=O)c3ncc(-c4ccc5c(cnn5C)c4)n3c2)CCCC1`, for which the solubility thermodynamic in series [1] stood at 26 µM (≈ 11.3 µg/mL).

Regarding `COc1ccccc1-c1cc(NS(C)(=O)=O)c2ncc(-c3ccc4c(cnn4C)c3)n2c1`, in series [1], the solubility thermodynamic is 18 µM (≈ 8.06 µg/mL).

In the case of `CCCCCCCCCCCCCC(=O)O[C@@H]1[C@@H](C)[C@@]2(O)[C@@H](C=C(CO)C[C@]3(O)C(=O)C(C)=C[C@@H]23)[C@@H]2C(C)(C)[C@]12OC(C)=O`, the result in the series on HL-60 [2], with THP-1 [3], in the series with OCI-AML-3 [4], with KG-1 [5], in the series on ME-1 [6] and in the series with Kasumi 1 [7] was Active.

As for `COc1ccc(-c2cnc3c(NC(C)=O)cc(-c4ccccc4OC)cn23)cc1OC`, the remaining at 0.75 h in series [8] was determined as 1%. Moreover, the solubility thermodynamic in [1] was 39 µM (≈ 16.3 µg/mL).

In the case of `COc1ccccc1-c1cc(NC=O)c2ncc(-c3ccc4nc(C)oc4c3)n2c1`, the solubility thermodynamic in series [1] was 2 µM (≈ 0.797 µg/mL).

For `COc1ccccc1-c1cc(NC=O)c2ncc(-c3ccccc3)n2c1`, the solubility thermodynamic in series [1] worked out at 2 µM (≈ 0.687 µg/mL).

For the molecule `COc1cc(F)ccc1-c1cc(NS(C)(=O)=O)c2ncc(-c3ccc4c(cnn4C)c3)n2c1`, the solubility thermodynamic in series [1] worked out at 12 µM (≈ 5.59 µg/mL).

As to `COc1ccc(-c2cnc3c(N(C)C=O)cc(-c4ccccc4OC)cn23)cc1OC`, in series [8], the remaining at 0.75 h stood at 46%. For the same molecule, the solubility thermodynamic in [1] was 1 µM (≈ 0.417 µg/mL).

As for `COc1ccccc1-c1cc(NC=O)c2ncc(-c3ccc4c(c3)c(C)nn4C)n2c1`, the solubility thermodynamic in series [1] worked out at 6 µM (≈ 2.47 µg/mL).

For `COc1ccc(-c2cnc3c(N4CC5(COC5)C4)nc(-c4ccccc4OC)cn23)cc1OC`, the solubility thermodynamic in [1] worked out at 26 µM (≈ 11.9 µg/mL).

With `COc1ccc(-c2cnc3ncc(-c4ccccc4OC)cn23)cc1OC`, the remaining at 0.75 h in series [8] was determined as 70%. The solubility thermodynamic in [1] worked out at 1 µM (≈ 0.361 µg/mL).

Turning to `Cc1cc(C#N)ccc1-c1cc(NS(C)(=O)=O)c2ncc(-c3ccc4c(cnn4C)c3)n2c1`, the solubility thermodynamic in series [1] is 26 µM (≈ 11.9 µg/mL).

As to `COc1ccc(-n2cnc3cnc(-c4ccccc4OC)cc32)cc1OC`, the solubility thermodynamic in [1] amounted to 200 µM (≈ 72.3 µg/mL).

Take `COc1ccc(-c2cnc3c(C(N)=O)cc(-c4ccccc4OC)cn23)cc1OC`: in series [1], the solubility thermodynamic amounted to 12 µM (≈ 4.84 µg/mL).

As to `Cn1ncc2cc(-c3cnc4c(NS(C)(=O)=O)cc(-c5ccc(F)cc5Cl)cn34)ccc21`, in [1], the solubility thermodynamic stood at 9 µM (≈ 4.23 µg/mL).

Take `COc1ccccc1-c1cc(NC=O)c2nccn2c1`: the solubility thermodynamic in [1] was more than 200 µM.

For the molecule `COc1ccc(-c2cnc3c(NC=O)cc(-c4ccccc4OC)cn23)cc1OC`, the Activity entry is “<=78%” with HL-60 [9] and 14% in the series on HL-60 [10]. For the same molecule, the result in the series on HL-60 [11], in the series on THP-1 [12], with OCI-AML-3 [13], with KG-1 [14], with ME-1 [15] and in the series with Kasumi 1 [16] was Active. The outcome with HL-60 [17], with HL-60 [18], in the series with HL-60 [19] and in the series with HL-60 [20] was Active. Also, the remaining at 0.75 h in series [8] is 28%. In addition, in series [1], the solubility thermodynamic is 37 µM (≈ 14.9 µg/mL).

As for `CNc1cc(-c2ccccc2OC)cn2c(-c3ccc(OC)c(OC)c3)cnc12`, in [8], the remaining at 0.75 h was 81%. Moreover, the solubility thermodynamic in series [1] worked out at 8 µM (≈ 3.12 µg/mL).

For `COc1ccc(-c2cnc3ccc(-c4ccccc4OC)cn23)cc1OC`, the solubility thermodynamic in [1] stood at 156 µM (≈ 56.2 µg/mL).

With `COc1ccc(-c2cnc3c(N)cc(-c4ccccc4OC)cn23)cc1OC`, in [1], the solubility thermodynamic is 38 µM (≈ 14.3 µg/mL).

`COc1ccc(-c2cnc3c(NS(C)(=O)=O)cc(-c4ccccc4OC)cn23)cc1OC`: the solubility thermodynamic in series [1] was 43 µM (≈ 19.5 µg/mL).

For `COc1ccc(-c2cnc3c(NC=O)nc(-c4ccccc4OC)cn23)cc1OC`, the remaining at 0.75 h in series [8] amounted to 0.5%. The solubility thermodynamic in series [1] is 1 µM (≈ 0.404 µg/mL).

With `CNc1nc(-c2ccccc2OC)cn2c(-c3ccc(OC)c(OC)c3)cnc12`, in series [1], the solubility thermodynamic came out at 39 µM (≈ 15.2 µg/mL).

In the case of `Cc1ccccc1-c1cc(NS(C)(=O)=O)c2ncc(-c3ccc4c(cnn4C)c3)n2c1`, the solubility thermodynamic in series [1] was 13 µM (≈ 5.61 µg/mL).

Turning to `COc1ccccc1-c1cc(NC=O)c2ncc(-c3ccc4c(cnn4C)c3)n2c1`, the solubility thermodynamic in series [1] is 2 µM (≈ 0.795 µg/mL).

With `COc1ccccc1-c1cc(NC=O)c2ncc(-c3ccc4c(C)nn(C)c4c3)n2c1`, the solubility thermodynamic in series [1] came out at 2 µM (≈ 0.823 µg/mL).

`COc1ccc(-c2cnc3c(N4CCOCC4)nc(-c4ccccc4OC)cn23)cc1OC`: the solubility thermodynamic in series [1] was found to be 4 µM (≈ 1.79 µg/mL).

Consider `COc1cc(C#N)ccc1-c1cc(NS(C)(=O)=O)c2ncc(-c3ccc4c(cnn4C)c3)n2c1`, for which the solubility thermodynamic in series [1] stood at 2 µM (≈ 0.945 µg/mL).

For the molecule `COc1ccccc1-c1cc(NC=O)c2ncc(-c3ccc4nn(C)c(C)c4c3)n2c1`, the solubility thermodynamic in [1] came to 4 µM (≈ 1.65 µg/mL).
